Test results taken from patent publication US4175125A, “Method for treating methicillin resistant staphylococcus aureus” (Eli Lilly and Company, priority 1978, dated 1979).
Converted amounts (≈) assume the structure as drawn.

How the values were obtained:
Format in all cases: cell-based
[1] = test system: Staphylococcus aureus cultures; assay: Agar dilution MIC, Example 13 compound vs methicillin resistant Staphylococcus aureus; details: read-out: MIC
Text: The table which follows gives the minimum inhibitory concentration (MIC) in micrograms of compound per milliliter of culture (μg/ml), in comparison with similar MIC values for the known antibiotics methicillin, cephalothin and cephaloridine against the same strains of bacteria.

[2] = test system: Staphylococcus aureus cultures; assay: Agar dilution susceptibility test, phenylthioacetyl cephalosporins vs methicillin resistant S. aureus (Example 9); details: Staphylococcus aureus, read-out: MIC
Text: This example compares the antibiotic activities of three known compounds, methicillin, cephalothin, and cephaloridine, with three compounds from the above examples, in terms of minimum inhibitory concentration (MIC) values in microgram/milliliter units against various isolates of Staphylococcus aureus cultures. The culture numbers and the procedures used to obtain the reported data are disclosed by W. E. Wick and D. A. Preston in their article "Heterogeneous Methicillin-Resistant Staphylococcus Aureus" which appeared in Progress in Antimicrobial And Anticancer Chemotherapy, Proceedings of the 6th International Congress of Chemotherapy, Volume, 1, U. of Tokyo Press, Tokyo, (1970). In these agardilution susceptibility tests, the inocula were diluted to 10^3 bacteria per spot. Cultures 3055 (benzylpenicillin sensitive) and H232 (benzylpenicillin-resistant) are controls. The remaining cultures are methicillin-resistant, and, except for 3136, are clinical isolates. Culture 3136 is a 4th transfer laboratory selected mutant.

[3] = test system: Staphylococcus aureus cultures; assay: Broth dilution MIC in trypticase soy broth, low and high NaCl (Example 10); details: Staphylococcus aureus, TSB, read-out: MIC
Method: This example compares the antibiotic activities of methicillin, cephalothin and cephaloridine with the compounds of Examples 1, 2 and 3, in broth dilution tests. The MIC values, in μg/ml., are against the same Staphylococcus aureus cultures described in Example 9, except that in this example the cultures were grown in trypticase soy broth (TSB). Growing the cultures in two broth cultures, one having a low (0.5 percent) sodium chloride content and one having a high (5.0 percent) sodium chloride content is said to assist in identifying the methicillin-resistant cultures from those which are not methicillin-resistant. […] See Chabbert, Y. A., 1967 Postgrad. Med. J., 43 (suppl); 40-46. One expects that similar changes in MIC values for this type of culture to other β-lactam antibiotics, e.g., various penicillins and cephalosporins, to have similar implications. […] That is, methicillin-resistant S.aureus cultures are susceptible to the cephalosporin antibiotics used in this invention.

[4] = culture 3131, table part marked b
[5] = culture 3131, table part marked c
[6] = culture 3135, table part marked b
[7] = culture 3135, table part marked c
[8] = culture 3136, table part marked b
[9] = culture 3136, table part marked c
[10] = culture 3137, table part marked b
[11] = culture 3137, table part marked c
[12] = culture 3138, table part marked b
[13] = culture 3138, table part marked c
[14] = culture 3139, table part marked b
[15] = culture 3139, table part marked c
[16] = culture (Seattle) 966, table part marked b
[17] = culture (Seattle) 966, table part marked c
[18] = culture S61, table part marked b
[19] = culture S61, table part marked c

Compound `O=C(Cc1cccs1)N[C@@H]1C(=O)N2C(C(=O)[O-])=C(C[n+]3ccccc3)CS[C@H]12` [Cephaloridine, cephaloridine, reference compound] has an MIC ([1]; culture 3055 (control), Trypticase Soy Agar with 4.5% NaCl added (5% NaCl)) of 0.13 mg/L (≈ 0.313 µM), an MIC ([1]; culture 3055 (control), Trypticase Soy Agar, 0.5% NaCl) of 0.03 mg/L (≈ 0.0722 µM) and an MIC ([1]; culture 3130, Trypticase Soy Agar with 4.5% NaCl added (5% NaCl)) of 1 mg/L (≈ 2.41 µM). For the same compound, the MIC ([1]; culture 3130, Trypticase Soy Agar, 0.5% NaCl) was 0.5 mg/L (≈ 1.2 µM), the MIC ([1]; culture 3131, Trypticase Soy Agar with 4.5% NaCl added (5% NaCl)) was 1 mg/L (≈ 2.41 µM) and the MIC ([1]; culture 3131, Trypticase Soy Agar, 0.5% NaCl) was 0.5 mg/L (≈ 1.2 µM). The MIC ([1]; culture 3132, Trypticase Soy Agar with 4.5% NaCl added (5% NaCl)) was 0.5 mg/L (≈ 1.2 µM), the MIC ([1]; culture 3132, Trypticase Soy Agar, 0.5% NaCl) was 0.25 mg/L (≈ 0.602 µM) and the MIC ([1]; culture 3133, Trypticase Soy Agar with 4.5% NaCl added (5% NaCl)) was 0.25 mg/L (≈ 0.602 µM). It also gave an MIC ([1]; culture 3133, Trypticase Soy Agar, 0.5% NaCl) of 0.13 mg/L (≈ 0.313 µM), an MIC ([1]; culture 3134, Trypticase Soy Agar with 4.5% NaCl added (5% NaCl)) of 1 mg/L (≈ 2.41 µM) and an MIC ([1]; culture 3134, Trypticase Soy Agar, 0.5% NaCl) of 1 mg/L (≈ 2.41 µM). The MIC ([1]; culture 3135, Trypticase Soy Agar with 4.5% NaCl added (5% NaCl)) was 4 mg/L (≈ 9.63 µM), the MIC ([1]; culture 3135, Trypticase Soy Agar, 0.5% NaCl) was 0.5 mg/L (≈ 1.2 µM) and the MIC ([1]; culture 3136, Trypticase Soy Agar with 4.5% NaCl added (5% NaCl)) was 4 mg/L (≈ 9.63 µM). The MIC ([1]; culture 3136, Trypticase Soy Agar, 0.5% NaCl) was 0.13 mg/L (≈ 0.313 µM), the MIC ([1]; culture 3137, Trypticase Soy Agar with 4.5% NaCl added (5% NaCl)) was 4 mg/L (≈ 9.63 µM) and the MIC ([1]; culture 3137, Trypticase Soy Agar, 0.5% NaCl) was 4 mg/L (≈ 9.63 µM). For the same compound, the MIC ([1]; culture 3138, Trypticase Soy Agar with 4.5% NaCl added (5% NaCl)) was 4 mg/L (≈ 9.63 µM), the MIC ([1]; culture 3138, Trypticase Soy Agar, 0.5% NaCl) was 1 mg/L (≈ 2.41 µM) and the MIC ([1]; culture 3139, Trypticase Soy Agar with 4.5% NaCl added (5% NaCl)) was 0.13 mg/L (≈ 0.313 µM). It also gave an MIC ([1]; culture 3139, Trypticase Soy Agar, 0.5% NaCl) of 0.5 mg/L (≈ 1.2 µM), an MIC ([1]; culture H232 (control), Trypticase Soy Agar with 4.5% NaCl added (5% NaCl)) of 0.13 mg/L (≈ 0.313 µM) and an MIC ([1]; culture H232 (control), Trypticase Soy Agar, 0.5% NaCl) of 0.06 mg/L (≈ 0.144 µM). For the same compound, the MIC ([1]; culture Havarmak 1136501, Trypticase Soy Agar with 4.5% NaCl added (5% NaCl)) was 8 mg/L (≈ 19.3 µM), the MIC ([1]; culture Havarmak 1136501, Trypticase Soy Agar, 0.5% NaCl) was 1 mg/L (≈ 2.41 µM) and the MIC ([1]; culture S 61, Trypticase Soy Agar with 4.5% NaCl added (5% NaCl)) was 1 mg/L (≈ 2.41 µM). It also gave an MIC ([1]; culture S 61, Trypticase Soy Agar, 0.5% NaCl) of 1 mg/L (≈ 2.41 µM), an MIC ([1]; culture Seattle 966, Trypticase Soy Agar with 4.5% NaCl added (5% NaCl)) of 0.13 mg/L (≈ 0.313 µM) and an MIC ([1]; culture Seattle 966, Trypticase Soy Agar, 0.5% NaCl) of 0.5 mg/L (≈ 1.2 µM). The MIC ([2]; culture 3055 (control, benzylpenicillin sensitive), table part marked b) was < 0.06 mg/L, the MIC ([2]; culture 3055 (control, benzylpenicillin sensitive), table part marked c) was 0.25 mg/L (≈ 0.602 µM) and the MIC ([2]; culture 3130, table part marked b) was 4 mg/L (≈ 9.63 µM). It also gave an MIC ([2]; culture 3130, table part marked c) of 8 mg/L (≈ 19.3 µM), an MIC [2, 4] of 1 mg/L (≈ 2.41 µM) and an MIC [2, 5] of 16 mg/L (≈ 38.5 µM). The MIC ([2]; culture 3132, table part marked b) was 2 mg/L (≈ 4.81 µM), the MIC ([2]; culture 3132, table part marked c) was 2 mg/L (≈ 4.81 µM) and the MIC ([2]; culture 3133, table part marked b) was 4 mg/L (≈ 9.63 µM). For the same compound, the MIC ([2]; culture 3133, table part marked c) was 16 mg/L (≈ 38.5 µM), the MIC ([2]; culture 3134, table part marked b) was 8 mg/L (≈ 19.3 µM) and the MIC ([2]; culture 3134, table part marked c) was 16 mg/L (≈ 38.5 µM). The MIC [2, 6] was 1 mg/L (≈ 2.41 µM), the MIC [2, 7] was 8 mg/L (≈ 19.3 µM) and the MIC [2, 8] was 0.25 mg/L (≈ 0.602 µM). For the same compound, the MIC [2, 9] was 16 mg/L (≈ 38.5 µM), the MIC [2, 10] was 8 mg/L (≈ 19.3 µM) and the MIC [2, 11] was 32 mg/L (≈ 77 µM). For the same compound, the MIC [2, 12] was 8 mg/L (≈ 19.3 µM), the MIC [2, 13] was 16 mg/L (≈ 38.5 µM) and the MIC [2, 14] was 1 mg/L (≈ 2.41 µM). For the same compound, the MIC [2, 15] was 4 mg/L (≈ 9.63 µM), the MIC [2, 16] was 0.25 mg/L (≈ 0.602 µM) and the MIC [2, 17] was 0.25 mg/L (≈ 0.602 µM). The MIC ([2]; culture H232 (control, benzylpenicillin-resistant), table part marked b) was < 0.06 mg/L, the MIC ([2]; culture H232 (control, benzylpenicillin-resistant), table part marked c) was < 0.06 mg/L and the MIC ([2]; culture Kavarmark 1138501, table part marked b) was 1 mg/L (≈ 2.41 µM). For the same compound, the MIC ([2]; culture Kavarmark 1138501, table part marked c) was 4 mg/L (≈ 9.63 µM), the MIC [2, 18] was 4 mg/L (≈ 9.63 µM) and the MIC [2, 19] was 16 mg/L (≈ 38.5 µM). For the same compound, the MIC [3, 4] was 2 mg/L (≈ 4.81 µM), the MIC [3, 5] was 16 mg/L (≈ 38.5 µM) and the MIC ([3]; culture 3132 (first column so headed), table part marked b) was 2 mg/L (≈ 4.81 µM). For the same compound, the MIC ([3]; culture 3132 (first column so headed), table part marked c) was 16 mg/L (≈ 38.5 µM), the MIC ([3]; culture 3132 (second column so headed), table part marked b) was 1 mg/L (≈ 2.41 µM) and the MIC ([3]; culture 3132 (second column so headed), table part marked c) was 16 mg/L (≈ 38.5 µM). For the same compound, the MIC [3, 6] was 2 mg/L (≈ 4.81 µM), the MIC [3, 7] was 16 mg/L (≈ 38.5 µM) and the MIC [3, 8] was < 0.5 mg/L. It also gave an MIC [3, 9] of 16 mg/L (≈ 38.5 µM), an MIC [3, 10] of 8 mg/L (≈ 19.3 µM) and an MIC [3, 11] of 32 mg/L (≈ 77 µM). The MIC [3, 12] was 4 mg/L (≈ 9.63 µM), the MIC [3, 13] was 16 mg/L (≈ 38.5 µM) and the MIC [3, 14] was 1 mg/L (≈ 2.41 µM). For the same compound, the MIC [3, 15] was 8 mg/L (≈ 19.3 µM), the MIC [3, 16] was 4 mg/L (≈ 9.63 µM) and the MIC [3, 17] was 8 mg/L (≈ 19.3 µM). For the same compound, the MIC ([3]; culture Kavarnick 1138501, table part marked b) was 2 mg/L (≈ 4.81 µM), the MIC ([3]; culture Kavarnick 1138501, table part marked c) was 16 mg/L (≈ 38.5 µM) and the MIC [3, 18] was 4 mg/L (≈ 9.63 µM). It also gave an MIC [3, 19] of 64 mg/L (≈ 154 µM), an MIC ([3]; culture S, table part marked b) of 4 mg/L (≈ 9.63 µM) and an MIC ([3]; culture S, table part marked c) of 16 mg/L (≈ 38.5 µM).
